Columns and labels:
[1] = target: T1, human prostaglandin H2 synthase type II (COX-2) (Homo sapiens, UniProt P35354); test: Human prostaglandin H2 synthase type II (hCOX-2) homogenate assay (transfected COS-7 cells, PGE2 formation); type: biochemical; parameters: expressed in transfected cells; host or cells: COS-7 (African Green Monkey Kidney); conditions: for inhibition at 10 µM: read-out: P3: COX 2 Homogenized Cell % Inhibition; for IC50: read-out: P4: COX 2 Homogenized Cell IC50
T1 sequence (P35354 18-604): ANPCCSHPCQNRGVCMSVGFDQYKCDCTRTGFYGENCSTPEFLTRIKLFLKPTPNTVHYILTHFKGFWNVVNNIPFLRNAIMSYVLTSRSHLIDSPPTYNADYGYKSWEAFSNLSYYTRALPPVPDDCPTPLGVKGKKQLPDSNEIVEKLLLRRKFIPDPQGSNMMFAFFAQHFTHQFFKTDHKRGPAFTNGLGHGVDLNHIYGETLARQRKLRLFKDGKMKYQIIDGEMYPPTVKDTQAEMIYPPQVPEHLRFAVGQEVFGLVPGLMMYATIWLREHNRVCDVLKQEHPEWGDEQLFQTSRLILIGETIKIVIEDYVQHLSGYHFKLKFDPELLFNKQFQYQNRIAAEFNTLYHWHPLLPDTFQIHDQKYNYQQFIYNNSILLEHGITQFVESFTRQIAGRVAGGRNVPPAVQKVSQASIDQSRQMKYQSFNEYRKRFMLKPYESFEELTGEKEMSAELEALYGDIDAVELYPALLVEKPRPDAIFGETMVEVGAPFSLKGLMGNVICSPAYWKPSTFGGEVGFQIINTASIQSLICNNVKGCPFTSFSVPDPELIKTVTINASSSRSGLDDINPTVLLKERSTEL
Description: HUMAN PROSTAGLANDIN H2 SYNTHASE TYPE II (hCOX-2) HOMOGENATE ASSAY (SINGLE CONCENTRATION)
Procedures 3 and 4 were used to assess COX-2 activity in a homogenized cell assay as follows:
(§1) COS-7 (African Green Monkey Kidney) cells are maintained in a suitable medium, and are trypsinized and plated at a density of 1×10^6 cells/well of a 6 well plate prior to assay. Approximately 24 hours later, cells are transiently transfected with a plasmid containing the human COX-2 gene using the lipofectamine method. Two days later, the cell-free homogenate is prepared by subjecting the cells to a polytron followed by centrifugation at 9,000×g. COX activity, initiated by the addition of […] arachidonic acid to the 9,000×g supernatant, is monitored in the presence of vehicle or drug. Product (PGE2) formation is quantitated by radioimmunoassay. Activity, reported as percent inhibition of PGE2 produced, is calculated as follows: [formula]

[2] = target: T1, human prostaglandin H2 synthase type II (COX-2); test: Human prostaglandin H2 synthase type II (COX-2) whole cell assay (ECV-304 cells, PGE2 by radioimmunoassay); type: cell-based; parameters: endogenous in cells; host or cells: ECV-304; conditions: for inhibition at 10 µM / inhibition at 3 µM: read-out: P1: COX 2 Whole Cell % Inhibition; for IC50: read-out: P2: COX 2 Whole Cell IC50; for inhibition at 3 µM: @3 μM (superscript a)
Description: HUMAN PROSTAGLANDIN H2 SYNTHASE TYPE II (COX-2) WHOLE CELL ASSAY (MULTIPLE CONCENTRATIONS)
Procedures 1 and 2 were used to determine the ability of the compounds to inhibit human prostaglandin H2 synthase type II (COX-2) in a whole cell assay at multiple concentrations as follows:
Approximately 28 h later, […] PMA and […] ionomycin (both final concentrations) are added to each well and incubated for an additional 16 h. Vehicle or test compounds in the amount of […] are incubated with the cells for five minutes prior to initiation of COX-2 enzyme activity by the addition of 30 μM arachidonic acid. Ten minutes later, an aliquot of the supernatant is withdrawn and the amount of PGE2 present quantitated by radioimmunoassay. Activity, reported as percent inhibition of PGE2 produced, is calculated as follows: [formula]

COX-1 [3] = target: T2, COX-1 (Homo sapiens, UniProt P23219); test: Human platelet thromboxane B2 production (via COX-1); type: cell-based; conditions: human platelets, TXB2 production; read-out: P5: COX 1 Human Platelet IC50
T2 construct: Remove the platelet-rich plasma (PRP) and dilute the PRP 1:20 with 0.9% NaCl; endogenous in cells; host or cells: human platelets (platelet-rich plasma of one volunteer)
T2 sequence (P23219 24-599): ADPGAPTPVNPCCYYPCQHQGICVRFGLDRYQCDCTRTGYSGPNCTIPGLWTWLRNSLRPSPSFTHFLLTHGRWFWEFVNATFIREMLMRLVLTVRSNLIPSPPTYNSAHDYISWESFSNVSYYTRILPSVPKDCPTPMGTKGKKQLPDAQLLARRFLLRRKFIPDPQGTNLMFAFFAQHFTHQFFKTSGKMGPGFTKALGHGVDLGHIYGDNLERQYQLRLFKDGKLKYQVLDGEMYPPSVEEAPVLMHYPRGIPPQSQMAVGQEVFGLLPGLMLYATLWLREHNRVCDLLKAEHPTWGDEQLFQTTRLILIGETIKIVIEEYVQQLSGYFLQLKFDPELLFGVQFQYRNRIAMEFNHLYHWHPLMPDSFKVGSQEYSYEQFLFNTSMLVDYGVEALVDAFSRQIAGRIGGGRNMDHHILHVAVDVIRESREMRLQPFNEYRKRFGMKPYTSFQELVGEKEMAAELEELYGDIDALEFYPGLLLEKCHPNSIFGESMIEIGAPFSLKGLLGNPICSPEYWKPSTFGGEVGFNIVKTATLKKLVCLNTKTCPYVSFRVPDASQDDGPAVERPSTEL
Description: HUMAN […] THROMBOXANE B2 PRODUCTION (via COX-1)
Procedure 5 was used to determine thromboxane B2 (TXB2) production (via COX-1) in human platelets as follows:
Draw blood from one volunteer into heparinized tubes then spin at RT for 15 to 20 minutes at 1,000 RPM. Remove the platelet-rich plasma (PRP) and dilute the PRP 1:20 with 0.9% NaCl containing 14.4U heparin/mL. Add 180 μL of the diluted PRP to each well of a 96-well plate and incubate at 37° C. for 5 minutes. Then add 20 μL vehicle (HBSS with 1% DMSO) or drug and incubate for 15 minutes at 37° C. Add 10 μl calcium ionophore and incubate 15 minutes at 37° C. Stop the reaction on slush ice for 5 minutes and assay supernatants immediately for TXB2 production via RIA or EIA.
Prepare all drugs at 10 mM in DMSO by diluting the drug in HBSS at a 1.100 ratio with 1% DMSO to 100 μM. Add 20 μl to PRP (1:10 ratio) to obtain 10 μM final concentration. The calcium ionophore is prepared by using 7 mg/mL free acid calcium ionophore in DMSO, which is warmed until the ionophore goes into solution. Just prior to use, dilute the solution 1:25 with HBSS.

[4] = target: T3, human prostaglandin H2 synthase type I (COX-1) (Homo sapiens, UniProt P23219); test: Human prostaglandin H2 synthase type I (COX-1) homogenate assay (transfected COS-7 cells, PGE2 formation); type: biochemical; conditions: COS-7 homogenate; for inhibition at 10 µM: read-out: P6: COX 1 Homogenized Cell % Inhibition
T3 construct: expressed in transfected cells; host or cells: COS-7 (African Green Monkey Kidney)
T3 sequence (P23219 24-599): as above
Description: HUMAN PROSTAGLANDIN H2 SYNTHASE--TYPE I (COX-1) HOMOGENATE ASSAY (SINGLE CONCENTRATION)
Procedures 6 and 7 were used to assess COX-1 activity in a homogenized cell assay as follows:
as §1, with “COX-1” for “COX-2”

COX-1 [5] = target: T2, COX-1; test: Human platelet thromboxane B2 production (via COX-1); type: cell-based; conditions: @3 μM (superscript b); human platelets, TXB2 production; read-out: P5: COX 1 Human Platelet % Inhibition

Row | Structure (SMILES) | inhibition at 10 µM ([1]; @10 μM, COS-7 homogenate) | IC50 [2] | IC50 (COX-1 [3]) | inhibition at 10 µM [4] | inhibition at 3 µM [2] | inhibition at 3 µM (COX-1 [5]) | further results
1 | CS(=O)(=O)c1ccc(-n2nc(-c3ccc(F)cc3)c3c2C=CCC3)cc1 [Example 5a, 3-(4-Fluorophenyl)-4,5-dihydro-1-(4-methylsulfonylphenyl)-1H-indazole] | 6% | > 10 µM | > 10 µM | 32% | – | – | inhibition at 10 µM [2]: 9%
2 | COc1ccc(-n2nc(-c3ccc(Cl)cc3)c3c2CCCCC3)cc1 [Example 8, 3-(4-Chlorophenyl)-1-(4-methoxyphenyl)-cycloheptano-[1,2-d]-pyrazole] | 92% | 1.56 µM | – | 25% | – | – | IC50 ([1]; COS-7 homogenate): 0.38 µM; IC50 ([4]; read-out: P7: COX 1 Homogenized Cell IC50): 5.3 µM
3 | COc1ccc(-n2nc(-c3ccc(F)cc3)c3c2CCCCC3)cc1 [Example 9, 3-(4-Fluorophenyl)-1-(4-methoxyphenyl)-cycloheptano-[1,2-d]-pyrazole] | – | 2.51 µM | > 10 µM | 64% | – | – | IC50 ([1]; COS-7 homogenate): 2.5 µM
4 | CS(=O)(=O)c1ccc(-n2nc(-c3ccc(Cl)cc3)c3c2CCCCC3)cc1 [Example 10, 3-(4-Chlorophenyl)-1-(4-methylsulfonylphenyl)-cycloheptano-[1,2-d]-pyrazole] | 26% | – | 10 µM | 24% | – | – | inhibition at 10 µM [2]: 5%
5 | Cc1ccc(-n2nc(-c3ccc(Cl)cc3)c3c2CCCCC3)cc1 [Example 11, 3-(4-Chlorophenyl)-1-(4-methylphenyl)-cycloheptano-[1,2-d]-pyrazole] | – | 0.64 µM | – | 74% | – | – | inhibition at 10 µM [1]: 40%
6 | CS(=O)(=O)c1ccc(C(=O)C2CC(=O)CCC2=O)cc1 (centres unmarked) [Example 29f] | – | – | – | – | 66% | 6% | –
7 | CS(=O)(=O)c1ccc(-n2nc3c(c2-c2ccc(C(F)(F)F)cc2)CCC=C3)cc1 [Example 32c] | – | 0.61 µM | – | – | – | 24% | –
8 | CCOc1ccc2c(-c3ccc(F)cc3)nn(-c3ccc(S(C)(=O)=O)cc3)c2c1 [Example 32j] | – | – | – | – | 87% | 35% | –
9 | Fc1ccc(-n2nc(-c3ccc(Cl)cc3)c3ccc4[nH]c5ccc(F)cc5c4c32)cc1 [Example 32k] | – | – | – | – | 29% | 22% | –

— patent US6083969A, “1,3- and 2,3-diarylcycloalkano and cycloalkeno pyrazoles as selective inhibitors of cyclooxygenase-2 and antiinflammatory agents” (Ortho-McNeil Pharaceutical, Inc., priority 1999, dated 2000)
